# Source: patent US20250163038A1, “CBL-B MODULATORS AND USES THEREOF” (Nimbus Clio, Inc., priority 2021, published 2025)
# Experiments:
# [1] = molecular target: T1, Recombinant human c-Cbl (aa 47-435) (Homo sapiens, UniProt P22681); test: c-Cbl Biochemical Assay (TR-FRET); details: hc-Cbl Biochemical Assay (TR-FRET); read-out: TR-FRET hcCbl IC50
# T1 sequence (P22681 47-435): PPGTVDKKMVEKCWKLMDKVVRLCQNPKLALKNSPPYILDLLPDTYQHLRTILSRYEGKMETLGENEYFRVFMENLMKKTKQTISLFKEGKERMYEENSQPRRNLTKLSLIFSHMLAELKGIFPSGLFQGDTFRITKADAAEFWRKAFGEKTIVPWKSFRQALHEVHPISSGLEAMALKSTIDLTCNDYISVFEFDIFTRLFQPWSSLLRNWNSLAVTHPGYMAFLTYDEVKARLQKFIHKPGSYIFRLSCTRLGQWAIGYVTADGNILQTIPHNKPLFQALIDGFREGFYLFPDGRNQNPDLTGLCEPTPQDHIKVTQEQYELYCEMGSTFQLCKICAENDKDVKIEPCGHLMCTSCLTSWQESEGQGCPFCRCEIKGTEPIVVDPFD
# [2] = molecular target: Recombinant human Cbl-b (aa 36-427) (Homo sapiens, UniProt Q13191); test: Cbl-b Biochemical Assay (TR-FRET); details: read-out: TR-FRET hCbl-b IC50
# [3] = test system: Jurkat (clone E6-1) cells with NFAT luciferase reporter; test: Jurkat reporter assay (NFAT Luciferase); type: cell-based; details: Homo sapiens; Jurkat NFAT luciferase reporter cells, anti-CD3 stimulation, 6 hr; read-out: Jurkat NFAT EC50
# Recombinant human Cbl-b (aa 36-427), sequence (Q13191 36-427): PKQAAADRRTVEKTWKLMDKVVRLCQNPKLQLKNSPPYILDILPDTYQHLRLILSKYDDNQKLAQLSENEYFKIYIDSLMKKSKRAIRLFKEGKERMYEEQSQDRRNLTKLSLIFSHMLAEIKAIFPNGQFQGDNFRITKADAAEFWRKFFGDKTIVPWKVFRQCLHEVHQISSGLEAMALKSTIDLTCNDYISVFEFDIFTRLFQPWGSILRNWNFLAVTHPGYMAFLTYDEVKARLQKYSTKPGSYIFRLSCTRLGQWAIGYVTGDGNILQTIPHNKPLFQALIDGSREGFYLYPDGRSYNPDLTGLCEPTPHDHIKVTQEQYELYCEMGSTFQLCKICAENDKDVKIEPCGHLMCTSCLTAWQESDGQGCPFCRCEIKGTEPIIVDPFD
Compound,IC50 [1],IC50 [2],EC50 [3]
"Cn1cnnc1-c1cc(F)ccc1-c1cccc(-c2nc3cc(CO)cc(Br)c3o2)c1 [EQ-4, (7-Bromo-2-(4′-fluoro-2′-(4-methyl-4H-1,2,4-triazol-3-yl)-[1,1′-biphenyl]-3-yl)benzo[d]oxazol-5-yl)methanol]",200 to 1000 nM,200 to 1000 nM,1000 to 10000 nM
"Cn1cnnc1-c1cc(F)ccc1-c1cccc(-c2nc3cc(CO)cc(C4CC4)c3o2)c1 [ES-4, (7-Cyclopropyl-2-(4′-fluoro-2′-(4-methyl-4H-1,2,4-triazol-3-yl)-[1,1′-biphenyl]-3-yl)benzo[d]oxazol-5-yl)methanol]",200 to 1000 nM,< 200 nM,1000 to 10000 nM
"Cn1cnnc1-c1cc(F)ccc1-c1cccc(-c2nc3cc(CN[C@@H]4CCC[C@@H]4O)ccc3s2)c1 [ET-8, (1S,2R)-2-(((2-(4′-Fluoro-2′-(4-methyl-4H-1,2,4-triazol-3-yl)-[1,1′-biphenyl]-3-yl)benzo[d]thiazol-5-yl)methyl)amino)cyclopentan-1-ol]",< 200 nM,< 200 nM,200 to 1000 nM
"Cn1cnnc1-c1cc(F)ccc1-c1cccc(-c2nc3cc(CNCCC(F)F)cc(C(F)(F)F)c3o2)c1 [EW-2, 3,3-Difluoro-N-((2-(4′-fluoro-2′-(4-methyl-4H-1,2,4-triazol-3-yl)-[1,1′-biphenyl]-3-yl)-7-(trifluoromethyl)benzo[d]oxazol-5-yl)methyl)propan-1-amine]",< 200 nM,< 200 nM,< 200 nM
"Cn1cnnc1-c1cc(F)ccc1-c1cccc(-c2nc3cc(CO)cc(C(F)F)c3o2)c1 [EX-6, (7-(Difluoromethyl)-2-(4′-fluoro-2′-(4-methyl-4H-1,2,4-triazol-3-yl)-[1,1′-biphenyl]-3-yl)benzo[d]oxazol-5-yl)methanol]",200 to 1000 nM,200 to 1000 nM,1000 to 10000 nM
COCCN(Cc1cc(C(F)(F)F)c2oc(-c3cccc(-c4ccc(F)cc4-c4nncn4C)c3)nc2c1)CC(C)(C)O [EZ-3],200 to 1000 nM,< 200 nM,1000 to 10000 nM
"C[C@H]1CCCN(Cc2cc(C(F)(F)F)c3oc(-c4cccc(-c5ccccc5-c5nncn5C)c4)nc3c2)C1 [Example Q-3, (S)-2-(2′-(4-Methyl-4H-1,2,4-triazol-3-yl)-[1,1′-biphenyl]-3-yl)-5-((3-methylpiperidin-1-yl)methyl)-7-(trifluoromethyl)benzo[d]oxazole]",1000 to 10000 nM,200 to 1000 nM,1000 to 10000 nM
"C[C@H]1CCCN(Cc2cc(C(F)(F)F)c3oc(-c4cccc(-c5ccc(F)cc5-c5nncn5C)c4)nc3c2)C1 [Example U-1, (S)-2-(4′-Fluoro-2′-(4-methyl-4H-1,2,4-triazol-3-yl)-[1,1′-biphenyl]-3-yl)-5-((3-methylpiperidin-1-yl)methyl)-7-(trifluoromethyl)benzo[d]oxazole]",1000 to 10000 nM,< 200 nM,200 to 1000 nM
"C[C@@H]1CN(Cc2cc(C(F)(F)F)c3oc(-c4cccc(-c5ccc(F)cc5-c5nncn5C)c4)nc3c2)CCO1 [Example V-1, (R)-2-(4′-Fluoro-2′-(4-methyl-4H-1,2,4-triazol-3-yl)-[1,1′-biphenyl]-3-yl)-5-((2-methylmorpholino)methyl)-7-(trifluoromethyl)benzo[d]oxazole]",1000 to 10000 nM,< 200 nM,1000 to 10000 nM
"Cn1cnnc1-c1cc(F)ccc1-c1cccc(-c2nc3cc(CO)cc(C(F)(F)F)c3o2)c1 [Example X-2, (2-(4′-Fluoro-2′-(4-methyl-4H-1,2,4-triazol-3-yl)-[1,1′-biphenyl]-3-yl)-7-(trifluoromethyl)benzo[d]oxazol-5-yl)methanol]",1000 to 10000 nM,< 200 nM,1000 to 10000 nM
"Cn1cnnc1-c1cc(F)ccc1-c1cccc(-c2nc3cc(CNCC4(O)CCC4)cc(C(F)(F)F)c3o2)c1 [Example Y-3, 1-((((2-(4′-Fluoro-2′-(4-methyl-4H-1,2,4-triazol-3-yl)-[1,1′-biphenyl]-3-yl)-7-(trifluoromethyl)benzo[d]oxazol-5-yl)methyl)amino)methyl)cyclobutan-1-ol]",1000 to 10000 nM,< 200 nM,200 to 1000 nM
"Cn1cnnc1-c1cc(F)ccc1-c1cccc(-c2nc3cc(CNC4(CO)COC4)cc(C(F)(F)F)c3o2)c1 [Example Z-2, (3-(((2-(4′-Fluoro-2′-(4-methyl-4H-1,2,4-triazol-3-yl)-[1,1′-biphenyl]-3-yl)-7-(trifluoromethyl)benzo[d]oxazol-5-yl)methyl)amino)oxetan-3-yl)methanol]",1000 to 10000 nM,< 200 nM,1000 to 10000 nM
"COc1cc(CNCC2CCC2)cc2nc(-c3cccc(-c4ccc(F)cc4-c4nncn4C)c3)oc12 [FA-1, 1-Cyclobutyl-N-((2-(4′-fluoro-2′-(4-methyl-4H-1,2,4-triazol-3-yl)-[1,1′-biphenyl]-3-yl)-7-methoxybenzo[d]oxazol-5-yl)methyl)methanamine]",< 200 nM,< 200 nM,< 200 nM

# The remaining lines, values ahead:
IC50 [1],IC50 [2],EC50 [3],Compound
< 200 nM,< 200 nM,< 200 nM,"Cn1cnnc1-c1cc(F)ccc1-c1cccc(-c2nc3cc(CN[C@@H]4CCC[C@@H]4O)cc(Br)c3o2)c1 [ER-2, (1S,2R)-2-(((7-Bromo-2-(4′-fluoro-2′-(4-methyl-4H-1,2,4-triazol-3-yl)-[1,1′-biphenyl]-3-yl)benzo[d]oxazol-5-yl)methyl)amino)cyclopentan-1-ol]"
< 200 nM,< 200 nM,< 200 nM,"Cn1cnnc1-c1cc(F)ccc1-c1cccc(-c2nc3cc(CN[C@@H]4CCC[C@@H]4O)cc(C4CC4)c3o2)c1 [ES-6, (1S,2R)-2-(((7-Cyclopropyl-2-(4′-fluoro-2′-(4-methyl-4H-1,2,4-triazol-3-yl)-[1,1′-biphenyl]-3-yl)benzo[d]oxazol-5-yl)methyl)amino)cyclopentan-1-ol]"
< 200 nM,< 200 nM,< 200 nM,"Cn1cnnc1-c1cc(F)ccc1-c1cccc(-c2nc3cc(CNC[C@H]4CCCO4)cc(C(F)(F)F)c3o2)c1 [EU-2, (R)-1-(2-(4′-Fluoro-2′-(4-methyl-4H-1,2,4-triazol-3-yl)-[1,1′-biphenyl]-3-yl)-7-(trifluoromethyl)benzo[d]oxazol-5-yl)-N-((tetrahydrofuran-2-yl)methyl)methanamine]"
< 200 nM,< 200 nM,< 200 nM,"Cn1cnnc1-c1cc(F)ccc1-c1cccc(-c2nc3cc(CN[C@@H]4CCC[C@@H]4O)cc(C(C)(C)C)c3o2)c1 [EV-9, (1S,2R)-2-(((7-(tert-Butyl)-2-(4′-fluoro-2′-(4-methyl-4H-1,2,4-triazol-3-yl)-[1,1′-biphenyl]-3-yl)benzo[d]oxazol-5-yl)methyl)amino)cyclopentan-1-ol]"
< 200 nM,< 200 nM,< 200 nM,"Cn1cnnc1-c1cc(F)ccc1-c1cccc(-c2nc3cc(CN[C@@H]4CCC[C@@H]4O)cc(C(F)F)c3o2)c1 [EY-2, (1S,2R)-2-(((7-(Difluoromethyl)-2-(4′-fluoro-2′-(4-methyl-4H-1,2,4-triazol-3-yl)-[1,1′-biphenyl]-3-yl)benzo[d]oxazol-5-yl)methyl)amino)cyclopentan-1-ol]"
1000 to 10000 nM,< 200 nM,1000 to 10000 nM,"Cn1cnnc1-c1ccccc1-c1cccc(-c2nc3cc(CN[C@@H]4CCC[C@H]4O)cc(C(F)(F)F)c3o2)c1 [Example N-1, (1R,2R)-2-(((2-(2′-(4-Methyl-4H-1,2,4-triazol-3-yl)-[1,1′-biphenyl]-3-yl)-7-(trifluoromethyl)benzo[d]oxazol-5-yl)methyl)amino)cyclopentan-1-ol]"
1000 to 10000 nM,< 200 nM,1000 to 10000 nM,"Cn1cnnc1-c1ccccc1-c1cccc(-c2nc3cc(CN[C@H]4CCC[C@@H]4O)cc(C(F)(F)F)c3o2)c1 [Example P-6, (1S,2S)-2-(((2-(2′-(4-Methyl-4H-1,2,4-triazol-3-yl)-[1,1′-biphenyl]-3-yl)-7-(trifluoromethyl)benzo[d]oxazol-5-yl)methyl)amino)cyclopentan-1-ol]"
1000 to 10000 nM,< 200 nM,200 to 1000 nM,"Cn1cnnc1-c1ccccc1-c1cccc(-c2nc3cc(CN[C@@H]4CCC[C@@H]4O)cc(C(F)(F)F)c3o2)c1 [Example R-3, (1S,2R)-2-(((2-(2′-(4-Methyl-4H-1,2,4-triazol-3-yl)-[1,1′-biphenyl]-3-yl)-7-(trifluoromethyl)benzo[d]oxazol-5-yl)methyl)amino)cyclopentan-1-ol]"
1000 to 10000 nM,< 200 nM,200 to 1000 nM,"Cn1cnnc1-c1cc(F)ccc1-c1cccc(-c2nc3cc(CN[C@@H]4CCC[C@@H]4O)cc(C(F)(F)F)c3o2)c1 [Example T-5, (1S,2R)-2-(((2-(4′-Fluoro-2′-(4-methyl-4H-1,2,4-triazol-3-yl)-[1,1′-biphenyl]-3-yl)-7-(trifluoromethyl)benzo[d]oxazol-5-yl)methyl)amino)cyclopentan-1-ol]"
1000 to 10000 nM,< 200 nM,200 to 1000 nM,"Cn1cnnc1-c1cc(F)ccc1-c1cccc(-c2nc3cc(CN[C@@H]4CCC[C@H]4O)cc(C(F)(F)F)c3o2)c1 [Example W-2, (1R,2R)-2-(((2-(4′-Fluoro-2′-(4-methyl-4H-1,2,4-triazol-3-yl)-[1,1′-biphenyl]-3-yl)-7-(trifluoromethyl)benzo[d]oxazol-5-yl)methyl)amino)cyclopentan-1-ol]"
